{"source": "patent US20260306642A1", "about": "“STAT DEGRADERS AND USES THEREOF” (Recludix Pharma, Inc., priority 2023, published 2026)", "key": {"pSTAT3": {"target": "pSTAT3 (Homo sapiens, UniProt P40763)", "sequence (P40763 whole entry)": "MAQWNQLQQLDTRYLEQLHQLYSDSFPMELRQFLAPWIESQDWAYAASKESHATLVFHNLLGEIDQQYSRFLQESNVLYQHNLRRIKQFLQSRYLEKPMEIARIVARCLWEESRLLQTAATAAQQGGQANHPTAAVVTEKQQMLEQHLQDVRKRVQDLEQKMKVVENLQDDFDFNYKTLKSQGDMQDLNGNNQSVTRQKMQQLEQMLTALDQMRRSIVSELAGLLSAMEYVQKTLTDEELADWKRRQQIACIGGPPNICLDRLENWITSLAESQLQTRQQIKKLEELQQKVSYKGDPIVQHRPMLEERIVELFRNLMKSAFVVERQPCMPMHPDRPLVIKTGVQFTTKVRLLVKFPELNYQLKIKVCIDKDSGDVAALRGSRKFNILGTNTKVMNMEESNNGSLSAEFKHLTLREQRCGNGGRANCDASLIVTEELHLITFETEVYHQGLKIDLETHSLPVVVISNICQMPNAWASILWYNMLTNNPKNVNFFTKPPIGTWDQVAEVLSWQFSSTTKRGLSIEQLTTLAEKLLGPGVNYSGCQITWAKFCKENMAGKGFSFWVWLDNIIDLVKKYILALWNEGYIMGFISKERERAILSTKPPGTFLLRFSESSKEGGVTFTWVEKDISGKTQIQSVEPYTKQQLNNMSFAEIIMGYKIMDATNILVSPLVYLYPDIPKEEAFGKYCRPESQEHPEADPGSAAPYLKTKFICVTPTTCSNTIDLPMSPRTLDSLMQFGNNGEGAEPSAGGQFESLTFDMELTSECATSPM", "experiment": "MSD-pSTAT-PBMC Assay (pSTAT3, IL-6 stimulated)", "format": "cell-based", "source_text": "Cryopreserved Peripheral Blood Mononuclear Cells (PBMC) are from AllCells. Recombinant Human IL-4 and IL-6 are from Peprotech. Mouse monoclonal anti-STAT3 antibody, rabbit monoclonal anti-pY705-STAT3 antibody, rabbit monoclonal Anti-pY641-STAT6 antibody, and lysis buffer are from Cell Signaling Technology (CST). Mouse monoclonal anti-STAT6 antibody is from BioLegend. Assay plates, blocker, and anti-rabbit secondary antibody are from Meso Scale Discovery (MSD).\nCryopreserved PBMCs were thawed out and allowed to recover overnight in IMDM+10% heat-inactivated FBS prior to plating 50,000 (STAT3) or 25,000 (STAT6) cells per well in 96-well U-bottom tissue culture plates. Cells were treated with compound for 3 hrs, then stimulated with 10 ng/mL IL-6 (STAT3) or 1 ng/mL IL-4 (STAT6) for 10 min. Cells were then spun down and washed with ice-cold PBS prior to lysing the cell pellet with 1× lysis buffer (CST) with 1× HALT protease and phosphatase inhibitor cocktail (Thermo). Lysates were transferred to and incubated overnight at 4° C. with shaking in QuickPlex 96-well high bind assay plates (MSD) pre-coated overnight with 30 μL per well of […] mouse monoclonal anti-STAT3 antibody (STAT3) or 2 μg/mL mouse monoclonal anti-STAT6 antibody (STAT6) in 1× PBS, and pre-blocked for 1 hour with 3% Blocker-A (MSD). Captured protein in the assay plates were then washed and probed with 25 μL per well of […] rabbit monoclonal anti-pY705-STAT3 antibody (STAT3) or […] rabbit monoclonal Anti-pY641-STAT6 antibody (STAT6) in 1% Blocker-A for 1 hour at room temperature with shaking, then washed and probed with 25 ul per well of 1 ug/ml Sulfo-TAG Labeled Goat Anti-Rabbit Antibody (MSD) in 1% Blocker-A for 1 hour at room temperature with shaking. Assay plates were then washed and 150 μL of 1× Read Buffer-T (MSD) was added to each well prior to reading on an SQ120 MSD Plate Reader. Assay signal from each sample was subtracted by the signal from unstimulated control wells and normalized to DMSO control wells. IC50 values were calculated using Graph Pad Prism Dose-Response Nonlinear Regression with variable slope. For both pSTAT3 and pSTAT6 A=≤100 nM; B=>100-1000 nM; C=>1000-3000 nM; and D=>3 μM."}, "STAT3": {"target": "T1, STAT3 (Homo sapiens, UniProt P40763)", "T1 construct": "Recombinant STAT3 protein (STAT3(G127-I722))", "T1 sequence (P40763 127-722)": "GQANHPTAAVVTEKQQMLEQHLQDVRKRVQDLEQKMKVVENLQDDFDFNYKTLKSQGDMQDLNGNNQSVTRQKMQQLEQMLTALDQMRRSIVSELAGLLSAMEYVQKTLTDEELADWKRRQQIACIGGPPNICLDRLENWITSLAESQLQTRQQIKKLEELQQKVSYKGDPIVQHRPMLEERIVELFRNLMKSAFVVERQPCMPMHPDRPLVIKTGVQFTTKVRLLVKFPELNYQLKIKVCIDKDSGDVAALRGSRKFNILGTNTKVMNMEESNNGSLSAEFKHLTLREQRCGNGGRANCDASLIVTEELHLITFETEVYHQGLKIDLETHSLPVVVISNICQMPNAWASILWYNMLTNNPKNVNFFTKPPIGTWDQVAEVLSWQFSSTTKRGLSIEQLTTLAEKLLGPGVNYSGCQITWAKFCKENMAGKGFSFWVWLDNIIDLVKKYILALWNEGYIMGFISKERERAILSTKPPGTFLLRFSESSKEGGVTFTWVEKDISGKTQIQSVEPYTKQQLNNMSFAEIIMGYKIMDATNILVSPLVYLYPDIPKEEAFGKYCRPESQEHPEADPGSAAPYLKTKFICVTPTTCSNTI", "experiment": "STAT3 Fluorescence Polarization (FP) Assay", "format": "binding", "method": "An FP assay was developed to determine IC50 values for test substances.\nRecombinant STAT3 protein (STAT3(G127-I722)) at 25 nM was combined with a fluorescently labeled, phosphotyrosine peptide probe (5-FAM-GpYLPQTV-NH2) at 2 nM in FP buffer (10 mM HEPES pH 7.4, 50 mM NaCl, 1 mM EDTA, 0.05% Tween 20, 2 mM DTT). 50 μL of STAT3-probe mixture was added to serial diluted compounds in black, 96-well plates (Greiner BioOne 655076) to a final concentration of 1% DMSO. Reaction components were mixed, and FP was measured after 45-minute incubation at room temperature using a Tecan Spark multimode plate reader. FP signal (mP) was plotted against the log concentration of the test substances and IC50 values were calculated by nonlinear regression analysis using GraphPad Prism software. For STAT3 FP assay, A=≤100 nM; B=>100-1000 nM; C=>1-10 μM; and D=>10 μM."}, "STAT6": {"target": "T2, STAT6 (Homo sapiens, UniProt P42226)", "T2 construct": "Recombinant STAT6 protein (STAT6(W123-T658))", "T2 sequence (P42226 123-658)": "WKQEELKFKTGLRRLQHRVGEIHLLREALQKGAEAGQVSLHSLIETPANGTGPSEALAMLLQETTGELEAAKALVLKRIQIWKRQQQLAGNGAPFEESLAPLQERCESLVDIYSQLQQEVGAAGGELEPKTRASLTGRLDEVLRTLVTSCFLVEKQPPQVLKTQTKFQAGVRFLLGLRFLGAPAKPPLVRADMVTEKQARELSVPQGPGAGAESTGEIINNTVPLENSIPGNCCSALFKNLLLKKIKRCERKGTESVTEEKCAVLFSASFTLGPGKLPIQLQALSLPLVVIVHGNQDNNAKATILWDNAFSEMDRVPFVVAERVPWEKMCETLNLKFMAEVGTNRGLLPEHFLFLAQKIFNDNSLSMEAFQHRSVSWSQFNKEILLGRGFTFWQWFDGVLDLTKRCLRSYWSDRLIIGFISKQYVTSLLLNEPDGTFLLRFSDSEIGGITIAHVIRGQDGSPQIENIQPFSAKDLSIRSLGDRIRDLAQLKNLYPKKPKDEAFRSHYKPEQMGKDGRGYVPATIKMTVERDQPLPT", "experiment": "STAT6 Fluorescence Polarization (FP) Assay", "format": "binding", "method": "An FP assay was developed to determine IC50 values for test substances. Recombinant STAT6 protein (STAT6(W123-T658)) at 250 nM was combined with a fluorescently labeled, phosphotyrosine peptide probe (5-FAM-ApYKPFQDLI-NH2) at 2 nM in FP buffer (10 mM HEPES pH 7.4, 50 mM NaCl, 1 mM EDTA, 0.05% Tween 20, 2 mM DTT). 50 μL of STAT6-probe mixture was added to serial diluted compounds in black, 96-well plates (Greiner BioOne 655076) to a final concentration of 1% DMSO. Reaction components were mixed, and FP was measured after 45-minute incubation at room temperature using a Tecan Spark multimode plate reader. FP signal (mP) was plotted against the log concentration of the test substances and IC50 values were calculated by nonlinear regression analysis using GraphPad Prism software. For STAT6 FP assay, A=≤300 nM; B=>300-3000 nM; C=>3-30 μM; and D=>30 μM."}, "[1]": {"settings": "read-out: pSTAT3 IC50, compound 3 hrs, then 10 ng/mL IL-6 10 min, pY705-STAT3"}, "[2]": {"settings": "compound 3 hrs, then 10 ng/mL IL-6 10 min, pY705-STAT3, read-out: pSTAT3 IC50"}}, "note": "Read-outs that look alike come from different tables or passages of the source.", "data": [{"smiles": "O=C(COc1cccc2c1C(=O)N(C1CCC(=O)NC1=O)C2=O)NCCOCCOCCC(=O)NC1(c2ccccn2)CN(C(=O)[C@@H]2CC[C@H]3CCCC[C@H](NC(=O)c4cc5cc(C(F)(F)P(=O)(O)O)ccc5s4)C(=O)N32)C1", "note": "(stereo partly drawn) [Compound 30, ((2-(((3S,6S,10aR)-3-(3-(3-(2-(2-(2-((2-(2,6-dioxopiperidin-3-yl)-1,3-dioxoisoindolin-4-yl)oxy)acetamido)ethoxy)ethoxy)propanamido)-3-(pyridin-2-yl)azetidine-1-carbonyl)-5-oxodecahydropyrrolo[1,2-a]azocin-6-yl)carbamoyl)benzo[b]thiophen-5-yl)difluoromethyl)phosphonic acid]", "values": [{"measurement": "IC50", "setting": "pSTAT3; [1]", "result": "> 3", "unit": "µM"}, {"measurement": "IC50", "setting": "STAT3", "result": "< 0.1", "unit": "µM"}, {"measurement": "IC50", "setting": "STAT6", "result": "3 to 30", "unit": "µM"}]}, {"smiles": "O=C(COc1cccc2c1C(=O)N(C1CCC(=O)NC1=O)C2=O)NCCOCCOCC(=O)NC1(c2ccccn2)CN(C(=O)[C@@H]2CC[C@H]3CCCC[C@H](NC(=O)c4cc5cc(C(F)(F)P(=O)(O)O)ccc5s4)C(=O)N32)C1", "note": "(stereo partly drawn) [Compound 32, ((2-(((3S,6S,10aR)-3-(3-(2-(2-(2-(2-((2-(2,6-dioxopiperidin-3-yl)-1,3-dioxoisoindolin-4-yl)oxy)acetamido)ethoxy)ethoxy)acetamido)-3-(pyridin-2-yl)azetidine-1-carbonyl)-5-oxodecahydropyrrolo[1,2-a]azocin-6-yl)carbamoyl)benzo[b]thiophen-5-yl)difluoromethyl)phosphonic acid]", "values": [{"measurement": "IC50", "setting": "pSTAT3; [1]", "result": "> 3", "unit": "µM"}, {"measurement": "IC50", "setting": "STAT3", "result": "< 0.1", "unit": "µM"}, {"measurement": "IC50", "setting": "STAT6", "result": "3 to 30", "unit": "µM"}]}, {"smiles": "Cn1c(=O)n(C2CCC(=O)NC2=O)c2ccc(C#CCCC3CCN(c4ccncc4C4CN(C(=O)[C@@H]5CC[C@@H]6CCC[C@H](NC(=O)c7cc8cc(C(F)P(=O)(O)O)ccc8s7)C(=O)N65)C4)CC3)cc21", "note": "(stereo partly drawn) [Compound 36, ((2-(((3S,6S,9aS)-3-(3-(4-(4-(4-(1-(2,6-dioxopiperidin-3-yl)-3-methyl-2-oxo-2,3-dihydro-1H-benzo[d]imidazol-5-yl)but-3-yn-1-yl)piperidin-1-yl)pyridin-3-yl)azetidine-1-carbonyl)-5-oxooctahydro-1H-pyrrolo[1,2-a]azepin-6-yl)carbamoyl)benzo[b]thiophen-5-yl)fluoromethyl)phosphonic acid]", "values": [{"measurement": "IC50", "setting": "pSTAT3; [2]", "result": "0.1 to 1", "unit": "µM"}, {"measurement": "IC50", "setting": "STAT3", "result": "< 0.1", "unit": "µM"}, {"measurement": "IC50", "setting": "STAT6", "result": "> 30", "unit": "µM"}]}, {"smiles": "Cn1c(=O)n(C2CCC(=O)NC2=O)c2ccc(C#CCCC3CCN(c4ccncc4C4CN(C(=O)[C@@H]5CC[C@@H]6CCC[C@H](NC(=O)c7cc8cc([C@H](F)P(=O)(O)O)ccc8s7)C(=O)N65)C4)CC3)cc21", "note": "(stereo partly drawn) [Compound 37, ((1R)-(2-(((3S,6S,9aS)-3-(3-(4-(4-(4-(1-(2,6-dioxopiperidin-3-yl)-3-methyl-2-oxo-2,3-dihydro-1H-benzo[d]imidazol-5-yl)but-3-yn-1-yl)piperidin-1-yl)pyridin-3-yl)azetidine-1-carbonyl)-5-oxooctahydro-1H-pyrrolo[1,2-a]azepin-6-yl)carbamoyl)benzo[b]thiophen-5-yl)fluoromethyl)phosphonic acid]", "values": [{"measurement": "IC50", "setting": "pSTAT3; [2]", "result": "0.1 to 1", "unit": "µM"}, {"measurement": "IC50", "setting": "STAT3", "result": "< 0.1", "unit": "µM"}, {"measurement": "IC50", "setting": "STAT6", "result": "3 to 30", "unit": "µM"}]}, {"smiles": "Cc1ncsc1-c1ccc([C@H](C)NC(=O)[C@@H]2C[C@@H](O)CN2C(=O)[C@@H](NC(=O)COCCOCC(=O)NC2(c3ccccn3)CN(C(=O)[C@@H]3CC[C@H]4CCCC[C@H](NC(=O)c5cc6cc(C(F)(F)P(=O)(O)O)ccc6s5)C(=O)N43)C2)C(C)(C)C)cc1", "note": "[Compound 31, (difluoro(2-(((3S,6S,10aR)-3-(3-(2-(2-(2-(((S)-1-((2S,4R)-4-hydroxy-2-(((S)-1-(4-(4-methylthiazol-5-yl)phenyl)ethyl)carbamoyl)pyrrolidin-1-yl)-3,3-dimethyl-1-oxobutan-2-yl)amino)-2-oxoethoxy)ethoxy)acetamido)-3-(pyridin-2-yl)azetidine-1-carbonyl)-5-oxodecahydropyrrolo[1,2-a]azocin-6-yl)carbamoyl)benzo[b]thiophen-5-yl)methyl)phosphonic acid]", "values": [{"measurement": "IC50", "setting": "pSTAT3; [1]", "result": "> 3", "unit": "µM"}, {"measurement": "IC50", "setting": "STAT3", "result": "< 0.1", "unit": "µM"}, {"measurement": "IC50", "setting": "STAT6", "result": "3 to 30", "unit": "µM"}]}, {"smiles": "CN(CCOc1ccc(C2CCC(=O)NC2=O)cc1)c1ccncc1C1CN(C(=O)[C@@H]2CC[C@@H]3CCC[C@H](NC(=O)c4cc5cc(C(F)(F)P(=O)(O)O)ccc5s4)C(=O)N32)C1", "note": "(stereo partly drawn) [Compound 21, ((2-(((3S,6S,9aS)-3-(3-(4-((2-(4-(2,6-dioxopiperidin-3-yl)phenoxy)ethyl)(methyl)amino)pyridin-3-yl)azetidine-1-carbonyl)-5-oxooctahydro-1H-pyrrolo[1,2-a]azepin-6-yl)carbamoyl)benzo[b]thiophen-5-yl)difluoromethyl)phosphonic acid]", "values": [{"measurement": "IC50", "setting": "pSTAT3; [2]", "result": "> 3", "unit": "µM"}, {"measurement": "IC50", "setting": "STAT3", "result": "< 0.1", "unit": "µM"}, {"measurement": "IC50", "setting": "STAT6", "result": "3 to 30", "unit": "µM"}]}, {"smiles": "O=C1CCC(c2ccc(OCC(=O)N3CCN(c4ccncc4C4CN(C(=O)[C@@H]5CC[C@@H]6CCC[C@H](NC(=O)c7cc8cc(C(F)(F)P(=O)(O)O)ccc8s7)C(=O)N65)C4)CC3)cc2)C(=O)N1", "note": "(stereo partly drawn) [Compound 28, ((2-(((3S,6S,9aS)-3-(3-(4-(4-(2-(4-(2,6-dioxopiperidin-3-yl)phenoxy)acetyl)piperazin-1-yl)pyridin-3-yl)azetidine-1-carbonyl)-5-oxooctahydro-1H-pyrrolo[1,2-a]azepin-6-yl)carbamoyl)benzo[b]thiophen-5-yl)difluoromethyl)phosphonic acid]", "values": [{"measurement": "IC50", "setting": "pSTAT3; [2]", "result": "> 3", "unit": "µM"}, {"measurement": "IC50", "setting": "STAT3", "result": "< 0.1", "unit": "µM"}, {"measurement": "IC50", "setting": "STAT6", "result": "3 to 30", "unit": "µM"}]}, {"smiles": "O=C1CCC(c2ccc(OCCOc3ccncc3C3CN(C(=O)[C@@H]4CC[C@@H]5CCC[C@H](NC(=O)c6cc7cc(C(F)(F)P(=O)(O)O)ccc7s6)C(=O)N54)C3)cc2)C(=O)N1", "note": "(stereo partly drawn) [Compound 9, ((2-(((3S,6S,9aS)-3-(3-(4-(2-(4-(2,6-dioxopiperidin-3-yl)phenoxy)ethoxy)pyridin-3-yl)azetidine-1-carbonyl)-5-oxooctahydro-1H-pyrrolo[1,2-a]azepin-6-yl)carbamoyl)benzo[b]thiophen-5-yl)difluoromethyl)phosphonic acid]", "values": [{"measurement": "IC50", "setting": "pSTAT3; [2]", "result": "> 3", "unit": "µM"}, {"measurement": "IC50", "setting": "STAT3", "result": "< 0.1", "unit": "µM"}, {"measurement": "IC50", "setting": "STAT6", "result": "3 to 30", "unit": "µM"}]}]}
